This test can be described thus: The compound was evaluated for binding affinity towards monoclonal antibody NC10.14 using competitive radioimmunoassay.

pKd: −log10 of the molar value.

On to `N#Cc1ccc(N/C(=N\CC(=O)O)NC(c2ccccc2)c2ccccc2)cc1`, for which the pKd is 7.74.

By pKd is commonly meant the Kd on a negative log10 scale, so that one unit is a factor of ten. A lower pKd goes with a high Kd.

Source of the values: ChEMBL document CHEMBL1130785, “A labeled guanidine ligand for studying sweet taste” (Bioorg Med Chem Lett, 1998).
